# Measured values published in patent US9732088B2, “C2-carbocyclic iminothiazine dioxides as BACE inhibitors, compositions, and their use” (Merck Sharp & Dohme Corp., priority 2014, dated 2017).
# System: CSF Aβ40
# Assay: Aβ Reduction In Vivo (rat CSF Aβ40)
# Details: male CD IGS rats, 10 mg/kg oral gavage, CSF at 3 hours, change vs vehicle
# Description: Assay 5: Aβ Reduction In Vivo
# The in vivo efficacy and/or potency of BACE inhibitors (test compounds) can be evaluated using a variety of animal models, including mouse, rat, dog, and monkey, and these animals can be wild type, transgenic, or gene knockout animals.
# Generally, animals are administered (by oral gavage, intravenous injection, or by other suitable route) a test compound in doses ranging from, for example, 0.1 mg/kg (mg of compound per kg of animal body weight) to 100 mg/kg formulated in vehicles, such as cyclodextrin, phosphate buffer, hydroxypropyl methylcellulose or other suitable vehicles. One to twenty-four hours following the administration of compound, animals are sacrificed, and tissues (for example, brain, cerebrospinal fluid (CSF), and/or plasma) are collected for analysis of Aβ levels and/or test compound concentrations (Dovey et al., 2001, Journal of Neurochemistry, 76, 173-181). Tissue samples are processed appropriately and then analyzed for the presence of Aβ by specific sandwich ELISA assays based on electrochemiluminescence (ECL) technology.
# For example, in the following assay for which data are reported below, male CD IGS rats (body weight approximately 120 g, Charles River Laboratories, Kingston, N.Y.) were used to assess lowering of CSF levels of Aβ1-40 (Aβ40) in the presence of compounds of the invention. At time 0, animals were administered by oral gavage a test compound at a dose of 10 mg/kg in 20% hydroxypropyl-β-cyclodextrin (dosing volume 5 mL/kg). A separate group of animals received 20% hydroxypropyl-β-cyclodextrin alone to serve as the vehicle control group. Three hours after administration, the rats were euthanized with excess CO2. Immediately following euthanasia, CSF was collected from the cisterna magna and quickly frozen on dry ice. Samples were stored at −80° C. until quantification of Aβ40 levels.
# The measurement of endogenous rat Aβ40 in CSF relied on the 585 antibody (Ab585, BioSource, NONO585), which specifically recognizes the N-terminal sequence of rodent Aβ40, and on the monoclonal antibody, G2-10, which specifically recognizes the free C-terminus of Aβ40. Ab585 was labeled with biotin (b-Ab585) by first dialyzing the antibody sample extensively versus PBS (pH 7.8) to remove impurities, followed by dilution to between 1 and 2 mg/mL protein concentration. EZ-Link Sulfo-NHS-LC-Biotin (Pierce) was dissolved in PBS (pH 7.8) at a concentration of 1 mg/mL immediately prior to use. Ab585 was labeled with EZ-Link Sulfo-NHS-LC-biotin using a 10:1 biotin:antibody ratio by incubation at room temperature for 1 hour. The labeling reaction was quenched by addition of 1.0 M glycine to a final concentration of 0.1 M followed by 10 minute incubation at room temperature. Glycine was removed by extensive dialysis versus PBS.
# For rat CSF Aβ40 determinations, a calibration curve of various concentrations of synthetic rodent Aβ40 was assayed in parallel with rat CSF samples in duplicate using an avidin-coated 96-well MSD plate (Mesoscale Diagnostics). Either 50 μL of rodent Aβ40 standards diluted in PBS (pH 7.4) supplemented with 1% BSA and 1% Tween-20 (standard diluent buffer) or 40 μL of standard diluent buffer plus 10 μL rat CSF were added to each 96 well avidin-coated plate. To each well was added 50 μL of 0.1 M HEPES (pH 7.5), 2% BSA, 2% Tween-20, 0.3 M NaCl (2×Aβ40 buffer) supplemented with the b-Ab585 capture and ruthenylated-G2-10 detection antibodies diluted to 1 μg/mL and 0.5 μg/mL, respectively. Plates were shaken for 1 min on a microplate shaker, covered to protect from light and incubated overnight (˜16 h) at 4° C. For detection, plates were first washed twice with 100 μL of 1×CSF Aβ40 buffer followed by addition of 160 μL of 1×MSD read buffer-T (Mesoscale Diagnostics) diluted in 1×CSF Aβ40 buffer. Plates were read on a MSD Sector Imager 2400 model (Mesoscale Diagnosotics). […]
row,Structure (SMILES),Aβ reduction in vivo in rat (Δ% CSF Aβ40 @ 10 mpk)
1,"COc1cnc2c(Nc3ccc(F)c([C@]4(C)CS(=O)(=O)C(C)(C)C(N)=N4)c3)nccc2n1 [Ex 47 of WO2014059185, reference compound]",−88%
2,"COc1cnc2c(Nc3cc([C@]4(C)CS(=O)(=O)[C@@](C)(C5CC5)C(N)=N4)c(F)cn3)nccc2c1 [Example 6, N-{4-[(3R,6S)-6-cyclopropyl-5-imino-3,6-dimethyl-1,1-dioxidothiomorpholin-3-yl]-5-fluoropyridin-2-yl}-3-methoxy-1,7-naphthyridin-8-amine]",−92%
3,"C[C@@]1(c2cc(Nc3ncnc4cc(C#N)cnc34)ccc2F)CS(=O)(=O)[C@@](C)(C2CC2)C(N)=N1 [Example 16, 4-({3-[(3R,6S)-6-cyclopropyl-5-imino-3,6-dimethyl-1,1-dioxidothiomorpholin-3-yl]-4-fluorophenyl}amino)pyrido[3,2-d]pyrimidine-7-carbonitrile]",−85%
4,"C[C@@]1(c2cc(Nc3nccc4cc(C#N)cnc34)ccc2F)CS(=O)(=O)[C@@](C)(C2CC2)C(N)=N1 [Example 18, 8-({3-[(3R,6S)-6-cyclopropyl-5-imino-3,6-dimethyl-1,1-dioxidothiomorpholin-3-yl]-4-fluorophenyl}amino)-1,7-naphthyridine-3-carbonitrile]",−87%
5,"COc1cnc2c(Nc3ccc(F)c([C@]4(C)CS(=O)(=O)[C@@](C)(C5CC5)C(N)=N4)c3)ncnc2n1 [Example 22, (2S,5R)-2-cyclopropyl-5-(2-fluoro-5-((7-methoxypteridin-4-yl)amino)phenyl)-3-imino-2,5-dimethylthiomorpholine 1,1-dioxide]",−70%
6,"CC1(C)C(=N)N[C@](C)(c2cc(Nc3noc4cc(F)cnc34)ccc2F)CS1(=O)=O [WO′426 Ex. 30b, reference compound]",+6%
